The record followed here is PubChem BioAssay (NCI).

Common to all, as to assay: NCI tumour cell line growth inhibition, 48 h
Test [1] concerns ACHN renal.
The test system of test [2] is CAKI-1 renal.
In test [3] the test system is EKVX NSCLC.
Test [4] relates to HCT-15 colon.
Test [5] concerns MOLT-4 leukemia.
In test [6] the test system is NCI-H460 lung.
The test system of test [7] is OVCAR-3 ovarian.
Test [8] has as its system SK-MEL-2 melanoma.
For test [9], the system named is SK-MEL-5 melanoma.

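Method: 48-hour compound exposure of cells in 96-well plates, five concentrations, linear interpolation of endpoints. At the GI50, growth is halved. Definition used: TGI = concentration required for complete inhibition of growth.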

In the case of `COc1cc(C(C)c2cc3c(cc2OCCOCCOc2cc4c(cc2C(C)c2cc(OC)c(OC)c(OC)c2)OCO4)OCO3)cc(OC)c1OC` (centres undefined), the GI50 in [1], in test [2], in [3], in test [5], in test [6] and in [8] was more than 100 µM in each case. Further, in [9], the GI50 is more than 10 µM. For the same compound, the TGI is more than 100 µM in test [1]; more than 100 µM in [2]; more than 100 µM in [3]; more than 10 µM in [4]; more than 100 µM in [5]; more than 100 µM in [6]. For the same compound, the TGI in test [7] was more than 10 µM; in test [8] it was more than 100 µM; in test [9] it was more than 100 µM.
Take `CC(C)[C@H](COC(C)(C)C)N=CN1CSc2ccccc21`: the TGI in test [1] is 71.4 µM; in test [3], more than 100 µM; in test [4] it was more than 100 µM; in test [5], more than 100 µM; in [6], more than 100 µM; in [7] it was 58.2 µM. Moreover, the figures for the TGI in [8] and in [9] were more than 100 µM and 63 µM, respectively.
With `Cc1cc(Cl)ccc1N1C(=O)C(=O)C(c2nc3ccccc3s2)/C(=N\NC(=O)c2ccccc2O)C1=O` (centres undefined), the TGI in test [1] was more than 100 µM; in [2] it was more than 100 µM; in test [3], more than 100 µM; in test [4], more than 100 µM; in [5], more than 21 µM; in [6], more than 100 µM. Besides, the TGI in test [7], in [8] and in [9] was more than 100 µM throughout.
As for `C#Cc1cccc(N2C(=O)CC(=P(c3ccccc3)(c3ccccc3)c3ccccc3)C2=O)c1`, the TGI in [1], in test [2], in [3], in test [5], in test [6] and in [7] was more than 100 µM throughout. The TGI is more than 100 µM in test [8] and 83.7 µM in test [9].
In the case of `C=CCCC12CCCC(=O)C1Sc1ccc3ccccc3c12` (centres undefined), the TGI was 92.3 µM in [1]; 26.4 µM in test [2]; 64.2 µM in [3]; 37.5 µM in test [4]; 39.6 µM in test [5]; 29 µM in [7]. Besides, the TGI in test [8] was 32.8 µM.
Turning to `CC(=O)[CH-]C(=O)c1ccccc1.CC(=O)[CH-]C(=O)c1ccccc1.[O-]c1ccc(O)cc1.[O-]c1ccc(O)cc1.[Ti+4]`, the GI50 in test [1] is 14.7 µM; in test [2], 17 µM; in test [4], 15.7 µM; in test [5], 4.18 µM; in [6] it was 14.2 µM; in test [7], 13.9 µM. Also, the GI50 was 14.6 µM in test [8] and 16.2 µM in test [9]. Moreover, the TGI is 28.1 µM in test [1]; 34.1 µM in test [2]; 37.6 µM in test [4]; more than 100 µM in [5]; 44.6 µM in test [6]; 27.2 µM in test [7]. In addition, the TGI in test [8] stood at 28.2 µM; in [9] it was 30.3 µM.
Take `O=C1c2ccccc2C(=O)N1C/C=N/NS(=O)(=O)c1ccc(Cl)cc1`: the TGI in [1], in [2], in [3], in test [4], in test [5] and in [6] was more than 100 µM each time. For the same compound, the TGI in [8] and in [9] was more than 100 µM each time.
For `CCCC(=O)C(CC)/C(CCC(=O)N(Cc1ccccc1)Cc1ccccc1)=N/NC(=O)C[N+](C)(C)C` (centres undefined), the TGI in [1], in [2], in test [3], in [5], in [6] and in test [7] was more than 100 µM in each case. Also, the TGI in test [8] and in test [9] was more than 100 µM each time.
Turning to `COC(=O)/C1=C/C2CC(/C=C(/c3ccccc3)C(=O)O1)C2`, the TGI in test [1] was 96.5 µM; in [3], more than 100 µM; in test [4], 53.1 µM; in test [5], 62 µM; in test [6], more than 100 µM; in test [7], more than 100 µM. Also, the TGI in test [9] worked out at 47 µM.
In the case of `c1ccc2c(c1)[Se]c1ccccc1[Se]2`, the TGI in test [1], in test [2], in test [5], in [6], in test [7] and in test [8] was more than 100 µM in each case. This compound displayed a TGI in [9] of more than 100 µM.
For the compound `CC(=O)N1C(=O)C(=O)c2cc(Cl)ccc21`, the TGI in test [1], in test [3], in [4], in test [5], in test [6] and in [7] was more than 100 µM each time. The TGI in test [9] is more than 100 µM.
On to `COc1ncnc2c1ncn2C/C(Br)=C(\Br)CCl`, for which the GI50 was 2.14 µM in [1]; 1.87 µM in [2]; 16.3 µM in test [3]; 1.84 µM in test [4]; 2.91 µM in test [5]; 1.77 µM in test [7]. In addition, in test [9], the GI50 is 2.19 µM. Besides, the TGI in test [1] stood at 4.92 µM; in test [2], 3.87 µM; in test [3], 29.9 µM; in test [4], 4.16 µM; in test [5], 25.4 µM; in [7] it was 3.22 µM. In [9], the TGI turned out to be 5.59 µM.
In the case of `CN(C)CC1CCC(CN(C)C)C1=NO` (centres undefined), the TGI in test [1] is more than 100 µM; in [2], more than 100 µM; in [3] it was more than 100 µM; in test [4], more than 100 µM; in [5], more than 100 µM; in [6], more than 10 µM. For the same compound, the TGI in test [7] and in test [9] was more than 100 µM throughout.
Take `COc1ccc2c(CCNS(=O)(=O)c3ccccc3)c(C(C)=O)[nH]c2c1[N+](=O)[O-]`: the TGI in test [1], in test [4], in test [5], in test [6], in [7] and in test [8] was more than 100 µM throughout.
